In patent publication US9546153B2, “Bicyclic heterocycle substituted pyridyl compounds useful as kinase modulators” (BRISTOL-MYERS SQUIBB COMPANY, priority 2012, dated 2017):
Where two headings read alike, the source gives them in different places.

How the values were obtained:
IRAK4 = IRAK4 (Homo sapiens (Human), UniProt Q9NWZ3); assay: IRAK4 Inhibition Assay; assay type: biochemical; details: ATP 500 μM; IRAK4 0.6 nM; 60 min at room temperature
Description: The assays were performed in U-bottom 384-well plates. […] The reaction was initiated by the combination of IRAK4 with substrates and test compounds. The reaction was incubated at room temperature for 60 min. and terminated by adding 45 μL of 35 mM EDTA to each sample. The reaction mixture was analyzed on the Caliper LABCHIP® 3000 (Caliper, Hopkinton, Mass.) by electrophoretic separation of the fluorescent substrate and phosphorylated product.

[1] = system: TLR2 induced IL-6 in peripheral blood mononuclear cells (PBMCs); assay: PBMC TLR2 Induced IL-6 Assay; assay type: cell-based, human; details: human PBMCs, 10 μg/ml lipoteichoic acid for 5 hours, IL-6 by ELISA, value without asterisk, read-out: Cell IC50
Description: Peripheral blood mononuclear cells (PBMCs) were isolated from human blood containing the anti-coagulant EDTA (2.5 mM) by centrifugation over a FICOLL® gradient. PBMCs (250000 cells/well) were cultured in assay media (RPMI with 10% heat inactivated FCS) with compounds for 30 minutes at 37° C. in a 5% CO2 incubator. Following pretreatment with compounds, cells were stimulated for 5 hours with 10 μg/ml lipoteichoic acid (Invivogen, San Diego, Calif.), a TLR2 agonist. At the end of the culture, plates were centrifuged at 1800 rpm for 10 minutes to pellet the cells. Supernatants were harvested and analyzed for IL-6 levels by ELISA (BD Biosciences, San Jose, Calif.). Inhibition was calculated as either an IC50 or EC50. EC50 determinations are indicated with an asterisk.

Chain of IRAK4 (Q9NWZ3 whole entry, species assumed): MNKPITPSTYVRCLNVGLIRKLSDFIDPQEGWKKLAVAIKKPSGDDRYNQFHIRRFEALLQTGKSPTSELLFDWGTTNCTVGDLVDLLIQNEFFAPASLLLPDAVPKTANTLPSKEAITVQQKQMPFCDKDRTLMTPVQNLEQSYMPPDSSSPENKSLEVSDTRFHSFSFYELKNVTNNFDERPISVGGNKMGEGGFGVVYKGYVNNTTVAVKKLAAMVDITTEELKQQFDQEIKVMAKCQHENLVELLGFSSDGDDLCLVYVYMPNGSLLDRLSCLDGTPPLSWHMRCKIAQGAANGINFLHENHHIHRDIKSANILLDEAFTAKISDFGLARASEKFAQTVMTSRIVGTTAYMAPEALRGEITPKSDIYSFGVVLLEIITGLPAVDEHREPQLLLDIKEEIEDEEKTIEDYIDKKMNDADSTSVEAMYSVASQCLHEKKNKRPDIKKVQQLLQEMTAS

| IC50 (IRAK4) [nM] | SMILES | IC50 ([1]; Homo sapiens, PBMC, 5 h) [nM] | IC50 [1] [nM] |
| --- | --- | --- | --- |
| 2.7 | CC(C)(O)[C@H](F)CNC(=O)c1cnc(Nc2ccc3ncsc3c2)cc1NC1CCOCC1 [Example 52] | 116 | – |
| 5.4 | CC(C)(O)[C@H](F)CNC(=O)c1cnc(Nc2ccc3ncsc3c2)cc1NC1CCCOC1 (stereo partly drawn) [Example 53] | 230 | – |
| 3.6 | CC(C)(O)[C@H](F)CNC(=O)c1cnc(Nc2ccc3ncsc3c2)cc1NC1CCCOC1 (stereo partly drawn) [Example 54] | – | 258 |
| 5.9 | CC(C)Nc1cc(Nc2ccc3nccnc3c2)ncc1C(=O)NC[C@@H](F)C(C)(C)O [Example 55] | 349 | – |
| 5.2 | CC(C)(O)[C@H](F)CNC(=O)c1cnc(Nc2ccc3ncsc3c2)cc1Nc1cccc(CO)c1 [Example 57] | 314 | – |
| 7 | CC(C)(O)[C@H](F)CNC(=O)c1cnc(Nc2ccc3ncccc3c2)cc1NC1CC1 [Example 58] | 545 | – |
| 6 | CC(C)(O)[C@H](F)CNC(=O)c1cnc(Nc2ccc3ncsc3c2)cc1Nc1cccc(CCO)c1 [Example 59] | 99 | – |
| 7 | CC(C)(O)[C@H](F)CNC(=O)c1cnc(Nc2ccc3ncsc3c2)cc1N[C@H]1CC[C@H](N)CC1 [Example 61] | 257 | – |
| 8.6 | CC(C)(O)[C@H](F)CNC(=O)c1cnc(Nc2ccc3ncsc3c2)cc1N[C@H](CO)c1ccccc1 [Example 63] | 632 | – |
| 5.2 | CC(C)(O)C1CC(Nc2cc(Nc3ccc4ncsc4c3)ncc2C(=O)NC[C@@H](F)C(C)(C)O)C1 (stereo partly drawn) [Example 64] | 440 | – |
| 3.9 | CC(C)(O)[C@H](F)CNC(=O)c1cnc(Nc2ccc3ncsc3c2)cc1N[C@@H](c1cc(F)cc(F)c1)[C@H](O)CO [Example 65] | 170 | – |
| 2.3 | CC(C)(O)[C@H](F)CNC(=O)c1cnc(Nc2ccc3ncsc3c2)cc1N[C@H]1CCC(CCO)C1 (stereo partly drawn) [Example 66] | – | 58 |
| 6.8 | CC(C)(O)[C@H](F)CNC(=O)c1cnc(Nc2ccc3ncsc3c2)cc1N[C@H]1CCC(CCO)C1 (stereo partly drawn) [Example 67] | – | 248 |
| 4.7 | CC(C)(O)[C@H](F)CNC(=O)c1cnc(Nc2ccc3ncsc3c2)cc1N[C@H]1CCC(CCO)C1 (stereo partly drawn) [Example 68] | – | 231 |
| 3.4 | CC(C)(O)[C@H](F)CNC(=O)c1cnc(Nc2ccc3ncsc3c2)cc1NC1CC(CO)C1 (stereo partly drawn) [Example 69] | 365 | – |
| 8.7 | CCOC(=O)C1CC(Nc2cc(Nc3ccc4ncsc4c3)ncc2C(=O)NC[C@@H](F)C(C)(C)O)C1 (stereo partly drawn) [Example 70] | 530 | – |
| 13.8 | CC(C)(O)[C@H](F)CNC(=O)c1cnc(Nc2ccc3nccnc3c2)cc1NC1CCCOC1 (stereo partly drawn) [Example 71] | 415 | – |
| 2.7 | CC(C)(O)[C@H](F)CNC(=O)c1cnc(Nc2ccc3ncncc3c2)cc1NC1CCC1 [Example 73] | 327 | – |
| 18.9 | CC(C)(O)[C@H](F)CNC(=O)c1cnc(Nc2ccc3nc(N)ccc3c2)cc1NC1CC1 [Example 75] | 710 | – |

| IC50 (IRAK4) [nM] | SMILES | IC50 ([1]; Homo sapiens, PBMC, 5 h) [nM] | IC50 [1] [nM] |
| --- | --- | --- | --- |
| 8.6 | CNC(=O)c1cc(F)c(Nc2cc(Nc3ccc4ncsc4c3)ncc2C(=O)NC[C@@H](F)C(C)(C)O)cc1F [Example 78] | 282 | – |
| 5.6 | CC(C)(O)[C@H](F)CNC(=O)c1cnc(Nc2ccc3cnccc3n2)cc1NC1CC1 [Example 79] | 48 | – |
| 8 | CC(C)(O)[C@H](F)CNC(=O)c1cnc(Nc2ccc3nccnc3c2)cc1NC1CC1 [Example 82] | 366 | – |
| 11.5 | CC(C)(C)Nc1cc(Nc2ccc3ncsc3c2)ncc1C(=O)NC[C@@H](F)C(C)(C)O [Example 83] | 133 | – |
| 5.1 | CC(C)(O)[C@H](F)CNC(=O)c1cnc(Nc2ccc3nccn3n2)cc1NC1CC1 [Example 85] | 195 | – |
| 11.4 | Cc1cc(O)ccc1Nc1cc(Nc2ccc3ncsc3c2)ncc1C(=O)NC[C@@H](F)C(C)(C)O [Example 86] | 281 | – |
| 5.3 | CC(C)(O)[C@H](F)CNC(=O)c1cnc(Nc2ccc3ncsc3c2)cc1NC1CCCCCC1 [Example 87] | 271 | – |
| 9 | CC(C)(O)[C@H](F)CNC(=O)c1cnc(Nc2ccc3nccnc3c2)cc1NC1CCCCCC1 [Example 88] | 457 | – |
| 2.6 | CC(C)(O)[C@H](F)CNC(=O)c1cnc(Nc2ccc3ncsc3c2)cc1NC1CC2CCC1C2 (stereo partly drawn) [Example 89] | 32 | – |
| 3.7 | CC(Nc1cc(Nc2ccc3ncsc3c2)ncc1C(=O)NC[C@@H](F)C(C)(C)O)C(F)(F)F (stereo partly drawn) [Example 91] | 64 | – |
| 4.8 | CC(C)(O)[C@H](F)CNC(=O)c1cnc(Nc2ccn3nccc3c2)cc1NC1CC1 [Example 92] | 177 | – |
| 16 | CC(C)(O)[C@H](F)CNC(=O)c1cnc(Nc2ccc3ncsc3c2)cc1NCC1CCCO1 (stereo partly drawn) [Example 93] | 619 | – |
| 13 | CC(C)(O)[C@H](F)CNC(=O)c1cnc(Nc2ccc3ncsc3c2)cc1NCC1CCCO1 (stereo partly drawn) [Example 94] | – | 339 |
| 1.9 | CC(C)(O)[C@H](F)CNC(=O)c1cnc(Nc2ccc3nccnc3c2)cc1NC1CC2CCC1C2 (stereo partly drawn) [Example 95] | 58 | – |
| 4.3 | CCNc1cc(Nc2ccc3ncsc3c2)ncc1C(=O)NC[C@@H](F)C(C)(C)O [Example 96] | 170 | – |
| 16.4 | CC(C)(O)[C@H](F)CNC(=O)c1cnc(Nc2ccc3nccnc3n2)cc1NC1CC1 [Example 97] | 302 | – |
| 7.2 | CC(C)(O)[C@H](F)CNC(=O)c1cnc(Nc2ccc3nonc3c2)cc1NC1CCC1 [Example 98] | 165 | – |
| 21.7 | CC(C)(O)[C@H](F)CNC(=O)c1cnc(Nc2ccc3nonc3c2)cc1NCC(F)(F)F [Example 100] | 830 | – |
| 54.8 | CC(C)(O)[C@H](F)CNC(=O)c1cnc(Nc2ccc3ncsc3c2)cc1NC(C1CC1)C1CC1 [Example 101] | 570 | – |

| IC50 (IRAK4) [nM] | SMILES | IC50 ([1]; Homo sapiens, PBMC, 5 h) [nM] | IC50 [1] [nM] |
| --- | --- | --- | --- |
| 2.9 | CC(C)(O)[C@H](F)CNC(=O)c1cnc(Nc2ccc3nsnc3c2)cc1N[C@@H](c1ccccc1)[C@H](O)CO [Example 102] | 312 | – |
| 13.4 | CC(C)(C)CNc1cc(Nc2ccc3nccnc3c2)ncc1C(=O)NC[C@@H](F)C(C)(C)O [Example 103] | 411 | – |
| 2.5 | CC1CCCC1Nc1cc(Nc2ccc3ncsc3c2)ncc1C(=O)NC[C@@H](F)C(C)(C)O (stereo partly drawn) [Example 104] | 350 | – |
| 1.9 | CC1CCCC1Nc1cc(Nc2ccc3ncsc3c2)ncc1C(=O)NC[C@@H](F)C(C)(C)O (stereo partly drawn) [Example 105] | – | 321 |
| 58 | CC(Nc1cc(Nc2ccc3ncsc3c2)ncc1C(=O)NC[C@@H](F)C(C)(C)O)C1CC1 (stereo partly drawn) [Example 106] | 570 | – |
| 3.9 | CC(C)(O)[C@H](F)CNC(=O)c1cnc(Nc2ccc3ncsc3c2)cc1NCC(F)(F)C(C)(C)O [Example 107] | 174 | – |
| 2.3 | CC(C)(O)[C@H](F)CNC(=O)c1cnc(Nc2ccc3ncsc3c2)cc1NC1C2CCCC21 (stereo partly drawn) [Example 108] | 507 | – |
| 5.8 | CC(C)(O)[C@H](F)CNC(=O)c1cnc(Nc2ccc3ncsc3c2)cc1NC1C2CCCC21 (stereo partly drawn) [Example 109] | – | 454 |
| 12.6 | CC(C)(O)[C@H](F)CNC(=O)c1cnc(Nc2ccc3ncoc3c2)cc1NCC(F)(F)F [Example 110] | 728 | – |
| 21.7 | CC(C)Nc1cc(Nc2ccc3nnccc3c2)ncc1C(=O)NC[C@@H](F)C(C)(C)O [Example 119] | 587 | – |
| 5.9 | CC(C)Nc1cc(Nc2cc(F)c3ncsc3c2)ncc1C(=O)NC[C@@H](F)C(C)(C)O [Example 120] | 459 | – |
| 2 | CC(C)(O)[C@H](F)CNC(=O)c1cnc(Nc2ccc3ncsc3c2)cc1NC1CC(F)(F)C1 [Example 121] | 345 | – |
| 4.2 | CC(C)(O)[C@H](F)CNC(=O)c1cnc(Nc2ccc3ncccc3n2)cc1NC1CC1 [Example 122] | 207 | – |
| 3.6 | CC(C)Nc1cc(Nc2ccc3ncccc3n2)ncc1C(=O)NC[C@@H](F)C(C)(C)O [Example 123] | 271 | – |
| 3.9 | COc1ncnc2ccc(Nc3cc(NC4CCOCC4)c(C(=O)NC[C@@H](F)C(C)(C)O)cn3)cc12 [Example 124] | 420 | – |
| 13.4 | CCNc1cc(Nc2ccc3ncnc(OC)c3c2)ncc1C(=O)NC[C@@H](F)C(C)(C)O [Example 125] | 779 | – |
| 1.5 | CC(C)(F)CNc1cc(Nc2ccc3ncsc3c2)ncc1C(=O)NC[C@@H](F)C(C)(C)O [Example 126] | 102 | – |
| 4.1 | CC(C)(F)CNc1cc(Nc2ccc3ncccc3c2)ncc1C(=O)NC[C@@H](F)C(C)(C)O [Example 127] | 472 | – |
| 10.4 | COc1ncnc2ccc(Nc3cc(NC4CC4)c(C(=O)NC[C@@H](F)C(C)(C)O)cn3)cc12 [Example 128] | 391 | – |
